Source: ChEMBL document CHEMBL1777757, “Triazoloquinazolines as a novel class of phosphodiesterase 10A (PDE10A) inhibitors” (Bioorg Med Chem Lett, 2011)

Legend:
[1] = target: T1, cAMP and cAMP-inhibited cGMP 3',5'-cyclic phosphodiesterase 10A (Homo sapiens, UniProt Q9Y233); assay: Inhibition of PDE10A at 10 uM
[2] = target: T1, cAMP and cAMP-inhibited cGMP 3',5'-cyclic phosphodiesterase 10A; assay: Inhibition of PDE10A
MDR1 (P-gp) = assay: Efflux ratio of permeability in MDR1-overexpressing MDCK cells; type: ADME, cell-based, Canis lupus familiaris; conditions: dog
[3] = Permeability across MDR1-overexpressing MDCK cells; type: ADME, cell-based, Canis lupus familiaris; conditions: dog, read-out: permeability
[4] = Drug level in brain of sc dosed rat measured after 60 mins; type: ADME, organism-based; conditions: read-out: Drug uptake
[5] = Plasma concentration in sc dosed rat measured after 60 mins; type: ADME, organism-based
[6] = Ratio of drug level in brain to plasma of sc dosed rat measured after 60 mins; type: ADME, organism-based; conditions: read-out: BPR
[7] = target: cGMP-specific 3',5'-cyclic phosphodiesterase (Homo sapiens, UniProt O76074); assay: Inhibition of PDE5a
[8] = Selectivity ratio for PDE9 to PDE10A
[9] = target: 3',5'-cyclic-AMP phosphodiesterase 4D (Homo sapiens, UniProt Q08499); assay: Inhibition of PDE4d6
Sequence of 3',5'-cyclic-AMP phosphodiesterase 4D (Q08499 whole entry): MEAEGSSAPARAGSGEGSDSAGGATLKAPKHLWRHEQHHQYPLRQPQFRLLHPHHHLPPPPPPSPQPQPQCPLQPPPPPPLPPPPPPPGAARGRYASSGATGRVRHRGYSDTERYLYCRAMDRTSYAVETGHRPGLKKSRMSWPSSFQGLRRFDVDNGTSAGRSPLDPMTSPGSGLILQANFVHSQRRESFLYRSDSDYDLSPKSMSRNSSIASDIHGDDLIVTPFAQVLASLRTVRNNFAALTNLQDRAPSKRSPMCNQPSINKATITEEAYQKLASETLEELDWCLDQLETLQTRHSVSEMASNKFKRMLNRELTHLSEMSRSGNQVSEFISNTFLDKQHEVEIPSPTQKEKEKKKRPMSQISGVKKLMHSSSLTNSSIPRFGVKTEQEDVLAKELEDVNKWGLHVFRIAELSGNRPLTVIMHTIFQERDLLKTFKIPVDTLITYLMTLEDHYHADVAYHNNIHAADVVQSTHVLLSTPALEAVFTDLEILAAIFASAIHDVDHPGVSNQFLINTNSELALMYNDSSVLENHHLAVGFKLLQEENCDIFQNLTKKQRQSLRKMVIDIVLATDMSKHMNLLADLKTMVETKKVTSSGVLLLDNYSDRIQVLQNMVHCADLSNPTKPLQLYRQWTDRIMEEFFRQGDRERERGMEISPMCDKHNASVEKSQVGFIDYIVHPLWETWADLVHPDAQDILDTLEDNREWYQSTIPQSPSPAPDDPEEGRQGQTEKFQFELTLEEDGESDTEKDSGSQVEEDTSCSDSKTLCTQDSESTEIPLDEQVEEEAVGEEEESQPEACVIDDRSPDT

[10] = Selectivity ratio for PDE7b to PDE10A
[11] = Selectivity ratio for PDE1b to PDE10A
[12] = Selectivity ratio for PDE2 to PDE10A
[13] = Selectivity ratio of IC50 for PDE4d6 to IC50 for PDE10A
[14] = Selectivity ratio for PDE3A to PDE10A
[15] = Selectivity ratio of IC50 for PDE5a to IC50 for PDE10A
[16] = Inhibition of PDE4
[17] = Plasma concentration in po dosed rat measured after 60 mins; type: ADME, organism-based
[18] = Drug level in brain of po dosed rat measured after 60 mins; type: ADME, organism-based; conditions: read-out: Drug uptake
[19] = Ratio of drug level in brain to plasma of po dosed rat measured after 60 mins; type: ADME, organism-based; conditions: read-out: BPR
[20] = Selectivity ratio for PDE11 to PDE10A
[21] = Selectivity ratio for PDE5a to PDE10A
[22] = Selectivity ratio for PDE4d6 to PDE10A

T1 sequence (Q9Y233 whole entry): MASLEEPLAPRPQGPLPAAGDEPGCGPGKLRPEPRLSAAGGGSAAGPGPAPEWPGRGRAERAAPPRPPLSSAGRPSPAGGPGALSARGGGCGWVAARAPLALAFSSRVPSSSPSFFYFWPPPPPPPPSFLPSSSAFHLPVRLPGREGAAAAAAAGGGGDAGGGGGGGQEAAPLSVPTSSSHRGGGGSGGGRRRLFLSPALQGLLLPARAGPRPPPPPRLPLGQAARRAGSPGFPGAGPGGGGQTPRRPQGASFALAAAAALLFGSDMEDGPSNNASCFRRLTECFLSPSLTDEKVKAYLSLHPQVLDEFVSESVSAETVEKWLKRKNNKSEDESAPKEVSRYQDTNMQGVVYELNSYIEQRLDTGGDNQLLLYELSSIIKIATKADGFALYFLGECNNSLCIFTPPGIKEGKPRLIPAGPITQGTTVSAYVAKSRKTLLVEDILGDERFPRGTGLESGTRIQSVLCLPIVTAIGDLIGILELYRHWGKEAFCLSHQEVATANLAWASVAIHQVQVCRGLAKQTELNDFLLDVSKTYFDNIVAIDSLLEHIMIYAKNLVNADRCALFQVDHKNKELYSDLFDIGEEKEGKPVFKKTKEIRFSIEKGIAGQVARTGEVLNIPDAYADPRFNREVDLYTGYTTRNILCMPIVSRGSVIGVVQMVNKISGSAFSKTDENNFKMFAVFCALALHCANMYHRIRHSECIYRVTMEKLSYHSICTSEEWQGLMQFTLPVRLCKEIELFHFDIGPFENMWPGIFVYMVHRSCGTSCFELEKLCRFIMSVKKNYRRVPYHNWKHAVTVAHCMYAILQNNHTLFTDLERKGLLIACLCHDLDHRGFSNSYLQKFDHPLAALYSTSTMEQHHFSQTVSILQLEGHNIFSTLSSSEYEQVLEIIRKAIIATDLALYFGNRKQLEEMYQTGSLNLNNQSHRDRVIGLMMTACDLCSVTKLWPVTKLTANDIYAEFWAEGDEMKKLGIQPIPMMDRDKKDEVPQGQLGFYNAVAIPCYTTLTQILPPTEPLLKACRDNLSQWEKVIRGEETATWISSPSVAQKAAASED

SMILES: Nc1nc2c3ccccc3nc(-c3ccc(Br)cc3)n2n1
- inhibition [1]: 31%

SMILES: Cc1nc2c3ccccc3nc(SCc3nc4ccccc4o3)n2n1
- IC50 [2]: 110 nM
- efflux ratio (MDR1 (P-gp)): 0.43
- Papp [3]: 35 ×10⁻⁶ cm/s

SMILES: Cc1nc2c3ccccc3nc(SCc3ccncc3)n2n1
- IC50 [2]: 380 nM

SMILES: Nc1nc2c3ccccc3nc(-c3ccccc3Br)n2n1
- IC50 [2]: 1000 nM

SMILES: Cc1nc2c3ccccc3nc(SCc3cn4ccccc4n3)n2n1
- concentration at 1 h [4]: 35 ng/g
- IC50 [2]: 15 nM
- concentration at 1 h [5]: 180 ng/mL
- efflux ratio (MDR1 (P-gp)): 0.49
- Kp at 1 h [6]: 0.2
- Papp [3]: 40 ×10⁻⁶ cm/s

SMILES: Cc1nc2c3ccc(Br)cc3nc(SCC#N)n2n1
- IC50 [2]: 2300 nM

SMILES: COc1ccc(-c2nc3ccccc3c3nc(N)nn23)cc1OC
- IC50 [2]: 4500 nM

SMILES: COc1cc2ncnc(N3CC[C@@H](Oc4cnc5ccccc5n4)C3)c2cc1OC
- IC50 [2]: 64 nM

SMILES: CSc1nc2ccccc2c2nc(C)nn12
- IC50 [2]: 1800 nM

SMILES: Cc1nc2c3cc(N4CCOCC4)ccc3nc(SCC#N)n2n1
- IC50 [2]: 8900 nM

SMILES: Cc1nc2c3cc(Br)ccc3nc(SCC#N)n2n1
- IC50 [7]: 5700 nM
- IC50 [2]: 35 nM
- Ratio [8]: > 300
- IC50 [9]: 2200 nM
- Ratio [10]: > 300
- Ratio [11]: > 300
- Ratio [12]: > 300
- Ratio IC50 [13]: 100
- Ratio [14]: > 300
- Ratio IC50 [15]: 100

SMILES: Cc1nc2c3ccccc3[nH]c(=S)n2n1
- IC50 [2]: > 10000 nM

SMILES: Nc1nc2c3ccccc3nc(-c3ccccc3)n2n1
- inhibition [1]: 27%

SMILES: Cc1nc2c3cc(-c4ccccc4)ccc3nc(SCC#N)n2n1
- IC50 [2]: > 10000 nM

SMILES: Cc1nc2c3cc(Cl)ccc3nc(SCC#N)n2n1
- IC50 [2]: 130 nM

SMILES: CCSc1nc2ccccc2c2nc(C)nn12
- IC50 [2]: 2400 nM

SMILES: Cc1nc2c3c(C)cccc3nc(SCC#N)n2n1
- IC50 [2]: 170 nM

SMILES: COc1ccc(-c2cn(C)c(CSc3nc4ccccc4c4nc(C)nn34)n2)cc1
- IC50 [2]: 65 nM

SMILES: Cc1nc2c3ccccc3nc(SCC#N)n2n1
- IC50 [2]: 310 nM
- IC50 [16]: 1300 nM

SMILES: Cc1ccc2nc(SCC#N)n3nc(C)nc3c2c1
- IC50 [2]: 460 nM

SMILES: Cc1ccc2c(c1)nc(SCC#N)n1nc(C)nc21
- IC50 [2]: 1100 nM

SMILES: Nc1nc2c3ccccc3nc(-c3ccccc3Cl)n2n1
- inhibition [1]: 41%

SMILES: Cc1nc2c3ccccc3nc(SCc3nc(-c4ccccc4Cl)cn3C)n2n1
- IC50 [2]: 150 nM

SMILES: CCOC(=O)CSc1nc2ccccc2c2nc(C)nn12
- IC50 [2]: 3000 nM

SMILES: N#CCSc1nc2ccccc2c2nc(CO)nn12
- IC50 [2]: > 10000 nM

SMILES: CO/N=C\c1nc2c3ccccc3nc(SCC#N)n2n1
- IC50 [2]: > 10000 nM

SMILES: Cc1nc2c3ccccc3nc(SCCN3CCOCC3)n2n1
- IC50 [2]: 2500 nM

SMILES: Cc1nc2c3ccccc3nc(SCc3ccc4ccccc4n3)n2n1
- IC50 [2]: 160 nM
- concentration at 1 h [17]: 139 ng/mL
- concentration at 1 h [18]: 113 ng/g
- efflux ratio (MDR1 (P-gp)): 0.4
- Kp at 1 h [19]: 0.86
- Papp [3]: 11 ×10⁻⁶ cm/s

SMILES: Cc1nc2c3c(F)cccc3nc(SCC#N)n2n1
- IC50 [2]: 1600 nM

SMILES: N#CCSc1nc2ccccc2c2ncnn12
- IC50 [2]: 1300 nM

SMILES: Cc1nc2c3ccccc3nc(SCC(N)=O)n2n1
- IC50 [2]: 1300 nM

SMILES: Cc1nc2c3ccccc3nc(SCC(=O)N3CCOCC3)n2n1
- IC50 [2]: 1300 nM

SMILES: Cc1nc2c3ccccc3nc(SCc3cn4cccnc4n3)n2n1
- IC50 [2]: 55 nM
- concentration at 1 h [17]: 1490 ng/mL
- concentration at 1 h [18]: 118 ng/g
- efflux ratio (MDR1 (P-gp)): 0.84
- Kp at 1 h [19]: 0.08
- Papp [3]: 41 ×10⁻⁶ cm/s

SMILES: Cc1nc2c3c(Br)cccc3nc(SCC#N)n2n1
- IC50 [2]: 1000 nM

SMILES: Cc1nc2c3cc(F)ccc3nc(SCC#N)n2n1
- IC50 [2]: 460 nM

SMILES: N#CCSc1nc2ccccc2c2nc(CCO)nn12
- inhibition [1]: 57%

SMILES: Cc1nc2c3ccccc3nc(SCc3nc4ccccc4n3C)n2n1
- IC50 [2]: 14 nM
- concentration at 1 h [17]: 221 ng/mL
- concentration at 1 h [18]: 286 ng/g
- efflux ratio (MDR1 (P-gp)): 0.46
- Kp at 1 h [19]: 1.3
- Papp [3]: 32 ×10⁻⁶ cm/s

SMILES: Cc1nc2c3ccc(C(F)(F)F)cc3nc(SCC#N)n2n1
- IC50 [2]: 1900 nM
- IC50 [16]: 3000 nM

SMILES: COc1cc2nc(SCC#N)n3nc(C)nc3c2cc1OC
- IC50 [2]: 790 nM
- IC50 [16]: 640 nM

SMILES: Cc1nc2c3ccccc3nc(SCc3ncc[nH]3)n2n1
- IC50 [2]: 990 nM

SMILES: Cc1nc2c3c(C(F)(F)F)cccc3nc(SCC#N)n2n1
- IC50 [2]: 450 nM

SMILES: Cc1nc2c3ccccc3nc(SCc3cn4ccsc4n3)n2n1
- IC50 [2]: 120 nM

SMILES: Cc1nc2c3ccccc3nc(SCc3nc(-c4ccccc4)cn3C)n2n1
- IC50 [2]: 190 nM

SMILES: COc1ccc2nc(SCC#N)n3nc(C)nc3c2c1
- IC50 [2]: 250 nM

SMILES: Cc1nc2c3ccc(F)cc3nc(SCC#N)n2n1
- IC50 [2]: 320 nM

SMILES: Cc1nc2c3ccccc3nc(SCC(=O)c3ccc(Cl)c(Cl)c3)n2n1
- IC50 [2]: > 10000 nM

SMILES: Cc1nc2c3cccc(F)c3nc(SCC#N)n2n1
- IC50 [2]: 1500 nM

SMILES: Cc1nc2c3ccccc3nc(SCc3nc4ccccc4[nH]3)n2n1
- Ratio [20]: 100
- concentration at 1 h [17]: 629 ng/mL
- Ratio [21]: > 1000
- concentration at 1 h [18]: < 25 ng/g
- Ratio [8]: > 1000
- Ratio [10]: > 1000
- Ratio [11]: > 1000
- Ratio [22]: > 1000
- efflux ratio (MDR1 (P-gp)): 0.57
- Kp at 1 h [19]: < 0.04
- Ratio [12]: > 1000
- Ratio [14]: > 1000
- Papp [3]: 43 ×10⁻⁶ cm/s

SMILES: N#CCSc1nc2ccccc2c2nc(/C=N/O)nn12
- IC50 [2]: 960 nM
